How the values were obtained:
HIPK1 = HIPK1 (Homo sapiens (Human), UniProt Q86Z02); assay: KINOMEscan competition binding assay
Protocol: (§1) KINOMEscan™ (Ambit Biosciences, San Diego, Calif.), a high-throughput method for screening small molecular agents against a large panel of human kinases, was utilized for compound 2.
(§2) Kinases where significant binding affinity was detected at 10 μM were retested in dose-response format to determine a dissociation constant. The size of the red circle is proportion to Kd. […] The compound binds in the “DFG-out” conformation as evident by the position of F405. Ample space is available adjacent to the gatekeeper residue T338 providing a rationale for the tolerance for a larger amino acid at this position.

BRAF = BRAF (Homo sapiens (Human), UniProt P15056); assay: KINOMEscan competition binding assay
Protocol: as §1, §2

CDK2 = CDK2 (Homo sapiens (Human), UniProt P24941); assay: KINOMEscan competition binding assay
Protocol: as §1, §2

FLT4 = FLT4 (Homo sapiens (Human), UniProt P35916); assay: KINOMEscan competition binding assay
Protocol: as §1, §2

FLT3 = FLT3 (Homo sapiens (Human), UniProt P36888); assay: KINOMEscan competition binding assay
Protocol: as §1, §2

FLT1 = FLT1 (Homo sapiens (Human), UniProt P17948); assay: KINOMEscan competition binding assay
Protocol: as §1, §2

CDK7 = CDK7 (Homo sapiens (Human), UniProt P50613); assay: KINOMEscan competition binding assay
Protocol: as §1, §2

LOK = LOK (Homo sapiens (Human), UniProt O94804); assay: KINOMEscan competition binding assay
Protocol: as §1, §2

Ba/F3-TEL/PDGFRβ = assay: Relative IC50 in PDGFR-expressing cell line; type: cell-based, murine; details: Mus musculus, 2.5-3 days, read-out: Relative IC50 range
Protocol: (§3) All compounds were initially dissolved in DMSO to make 10 mM stock solutions, and then were serially diluted to obtain final concentrations for in vitro experiments.
(§4) Ba/F3.p210 cells were obtained by transfecting the IL-3-dependent marine hematopoietic Ba/F3 cell line with a pGD vector containing p210BCR-ABL (B2A2) cDNA (Daley and Baltimore, 1988; Sattler et al., 1996; Okuda et al., 1996). Murine hematopoietic 32D cells were transduced with retrovirus to express p210 Bcr-ABL (32D.p210 cells) (Matulonis et al., 1993); the 32D-T315I cell line was transfected by electroporation with the imatinib resistant BCR-ABL construct (pCI-neo Mammalian Expression Vector; Promega (#E1841) harboring the point mutation T315I (Weisberg et al., 2005). Ba/F3 cells were stably transfected by electroporation with imatinib-resistant BCR-ABL constructs (pCI-neo Mammalian Expression Vector; Promega (#E1841) harboring the point mutations T315I, F317L, F486S, and M351T; transfectants were selected for neomycin resistance and IL-3-independent growth (Weisberg et al., 2005). Ba/F3 cells were stably transfected by electroporation with BCR-ABL point mutants identified in a random mutagenesis screen for BCR-ABL point mutants conferring resistance to nilotinib: Q252H, E292K, Y253C, Y253H, E255K, and V289L (Ray et al., 2007). Ba/F3 cells were made to express Tel-PDGFRβ as described by Golub et al., 1994, and Carroll et al., 1996. Constructs of D842V-PDGFRα and V561D-PDGFRα cDNA cloned into pcDNA3.1 were stably transfected into Ba/F3 cells by electroporation, and cells were selected for neomycin resistance and IL3-independent growth as described by Weisberg et al., 2006.
(§5) All cell lines were cultured with 5% CO2 at 37° C. in RPMI (Mediatech, Inc., Herndon, Va.) with 10% fetal calf serum (FCS) and supplemented with 1% L-glutamine. Parental Ba/F3 cells were similarly cultured with 15% WEHI-conditioned medium as a source of IL-3. Transfected cell lines were cultured in media supplemented with 1 mg/ml G418.

Ba/F3-PDGFRα-D842V = assay: Relative IC50 in PDGFR-expressing cell line; type: cell-based, murine; details: Mus musculus, 48 h, 2 day experiment, read-out: Relative IC50 range
Protocol: as §3, §4, §5

Ba/F3-PDGFRα-V561D = assay: Relative IC50 in PDGFR-expressing cell line; type: cell-based, murine; details: Mus musculus, 48 h, 2 day experiment, read-out: Relative IC50 range
Protocol: as §3, §4, §5

Ba/F3-PDGFRβ-T681I = assay: Relative IC50 in PDGFR-expressing cell line; type: cell-based, murine; details: Mus musculus, 2.5-3 days, read-out: Relative IC50 range
Protocol: as §3, §5

Ba/F3-PDGFRα-T674M = assay: Apoptosis assay; type: cell-based, murine; design: unit not given here; details: approximately 3 days of treatment
Protocol: as §5
(§6) Cell cycle analysis was performed using approximately 500,000 cells, which were centrifuged at 1500 rpm for 5 min, washed in PBS, and the pellet re-suspended in 500 μl of propidium iodide solution (50 μg/ml propidium iodide, 0.1% NP-40, 0.1% sodium citrate). The mixture was stored in the dark at 4° C. for a minimum of 15 min, and then analyzed by flow cytometry. Apoptosis of drug-treated cells was measured using the Annexin-V-Fluos Staining Kit (Boehringer Mannheim, Indianapolis).
(§7) Cells cultured in the presence or absence of drug were washed 1× with phosphate-buffered saline (PBS) and centrifuged for 5 min at 1500 rpm. Washed cell pellets were re-suspended in 100 μl of 20% Annexin-V-fluorescein labeling reagent and 20% propidium iodide (PI) in HEPES buffer. Cells were incubated for 15 min at room temperature, followed by dilution with 0.8 ml of HEPES buffer. Samples were then analyzed by flow cytometry. As controls, cells were incubated for 15 min with PI alone, Annexin-V-fluorescein labeling reagent alone, or HEPES buffer, and then diluted with HEPES buffer and analyzed by flow cytometry.

Ba/F3-kit-T6701 = assay: Apoptosis assay; type: cell-based, murine; design: unit not given here; details: approximately 3 days of treatment
Protocol: as §5, §6, §7

Ba/F3-PDGFRα-T674I = assay: Apoptosis assay; type: cell-based, murine; design: unit not given here; details: approximately 3 days of treatment
Protocol: as §5, §6, §7

Chain of FLT1 (P17948 27-1338): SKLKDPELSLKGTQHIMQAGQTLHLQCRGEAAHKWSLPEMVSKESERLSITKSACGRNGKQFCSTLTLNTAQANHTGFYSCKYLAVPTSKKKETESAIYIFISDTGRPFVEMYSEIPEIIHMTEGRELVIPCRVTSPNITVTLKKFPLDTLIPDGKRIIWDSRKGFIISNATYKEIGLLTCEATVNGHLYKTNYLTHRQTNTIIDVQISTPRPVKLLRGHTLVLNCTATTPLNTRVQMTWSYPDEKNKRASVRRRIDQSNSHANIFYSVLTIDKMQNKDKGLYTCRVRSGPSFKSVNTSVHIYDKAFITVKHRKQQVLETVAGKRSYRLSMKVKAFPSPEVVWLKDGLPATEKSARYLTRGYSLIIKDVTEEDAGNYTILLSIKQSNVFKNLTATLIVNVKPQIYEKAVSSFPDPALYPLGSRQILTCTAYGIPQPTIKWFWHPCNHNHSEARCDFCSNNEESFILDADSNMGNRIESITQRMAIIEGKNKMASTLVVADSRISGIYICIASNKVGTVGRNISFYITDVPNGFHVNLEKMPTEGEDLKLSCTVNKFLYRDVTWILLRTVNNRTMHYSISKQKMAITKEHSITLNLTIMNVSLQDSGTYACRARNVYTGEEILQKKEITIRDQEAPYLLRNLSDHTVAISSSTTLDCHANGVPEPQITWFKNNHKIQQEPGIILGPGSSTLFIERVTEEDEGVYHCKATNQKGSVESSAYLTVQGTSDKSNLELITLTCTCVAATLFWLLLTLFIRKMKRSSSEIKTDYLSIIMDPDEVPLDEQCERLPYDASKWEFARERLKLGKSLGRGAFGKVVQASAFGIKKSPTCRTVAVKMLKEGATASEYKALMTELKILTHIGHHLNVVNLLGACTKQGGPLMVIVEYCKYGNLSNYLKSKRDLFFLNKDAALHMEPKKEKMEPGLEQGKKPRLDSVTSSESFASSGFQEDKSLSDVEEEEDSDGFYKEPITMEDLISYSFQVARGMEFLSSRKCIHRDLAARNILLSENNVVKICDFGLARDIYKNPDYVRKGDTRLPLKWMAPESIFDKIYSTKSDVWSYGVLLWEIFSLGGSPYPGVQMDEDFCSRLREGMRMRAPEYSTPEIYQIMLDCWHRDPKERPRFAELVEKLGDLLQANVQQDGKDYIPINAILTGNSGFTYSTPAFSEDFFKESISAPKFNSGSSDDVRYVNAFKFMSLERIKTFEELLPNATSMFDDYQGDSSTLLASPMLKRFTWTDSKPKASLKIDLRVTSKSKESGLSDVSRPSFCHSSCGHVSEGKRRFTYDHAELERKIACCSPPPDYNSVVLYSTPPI
Chain of FLT3 (P36888 27-993): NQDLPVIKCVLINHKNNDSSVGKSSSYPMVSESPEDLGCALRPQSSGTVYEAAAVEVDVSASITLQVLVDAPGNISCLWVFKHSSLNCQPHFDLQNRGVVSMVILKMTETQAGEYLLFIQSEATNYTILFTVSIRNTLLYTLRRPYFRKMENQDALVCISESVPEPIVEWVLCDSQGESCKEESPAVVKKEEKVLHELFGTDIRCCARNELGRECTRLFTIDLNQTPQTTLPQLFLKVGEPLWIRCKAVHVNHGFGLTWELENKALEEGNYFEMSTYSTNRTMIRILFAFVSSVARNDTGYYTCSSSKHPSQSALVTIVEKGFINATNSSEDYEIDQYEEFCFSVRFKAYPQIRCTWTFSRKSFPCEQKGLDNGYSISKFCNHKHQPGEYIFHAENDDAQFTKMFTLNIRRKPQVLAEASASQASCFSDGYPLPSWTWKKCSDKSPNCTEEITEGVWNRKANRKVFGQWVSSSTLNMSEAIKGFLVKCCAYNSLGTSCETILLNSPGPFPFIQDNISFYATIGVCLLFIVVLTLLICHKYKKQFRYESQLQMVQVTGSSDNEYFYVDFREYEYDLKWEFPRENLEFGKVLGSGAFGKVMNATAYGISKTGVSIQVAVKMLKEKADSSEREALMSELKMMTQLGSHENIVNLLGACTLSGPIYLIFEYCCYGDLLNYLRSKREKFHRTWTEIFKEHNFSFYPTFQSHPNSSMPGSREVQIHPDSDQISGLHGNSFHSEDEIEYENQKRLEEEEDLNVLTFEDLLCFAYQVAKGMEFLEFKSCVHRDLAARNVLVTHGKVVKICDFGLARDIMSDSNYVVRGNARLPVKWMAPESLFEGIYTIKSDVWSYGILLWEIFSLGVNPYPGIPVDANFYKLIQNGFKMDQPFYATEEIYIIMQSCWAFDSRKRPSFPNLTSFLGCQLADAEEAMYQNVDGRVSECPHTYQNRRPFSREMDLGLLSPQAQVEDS
Chain of HIPK1 (Q86Z02 whole entry): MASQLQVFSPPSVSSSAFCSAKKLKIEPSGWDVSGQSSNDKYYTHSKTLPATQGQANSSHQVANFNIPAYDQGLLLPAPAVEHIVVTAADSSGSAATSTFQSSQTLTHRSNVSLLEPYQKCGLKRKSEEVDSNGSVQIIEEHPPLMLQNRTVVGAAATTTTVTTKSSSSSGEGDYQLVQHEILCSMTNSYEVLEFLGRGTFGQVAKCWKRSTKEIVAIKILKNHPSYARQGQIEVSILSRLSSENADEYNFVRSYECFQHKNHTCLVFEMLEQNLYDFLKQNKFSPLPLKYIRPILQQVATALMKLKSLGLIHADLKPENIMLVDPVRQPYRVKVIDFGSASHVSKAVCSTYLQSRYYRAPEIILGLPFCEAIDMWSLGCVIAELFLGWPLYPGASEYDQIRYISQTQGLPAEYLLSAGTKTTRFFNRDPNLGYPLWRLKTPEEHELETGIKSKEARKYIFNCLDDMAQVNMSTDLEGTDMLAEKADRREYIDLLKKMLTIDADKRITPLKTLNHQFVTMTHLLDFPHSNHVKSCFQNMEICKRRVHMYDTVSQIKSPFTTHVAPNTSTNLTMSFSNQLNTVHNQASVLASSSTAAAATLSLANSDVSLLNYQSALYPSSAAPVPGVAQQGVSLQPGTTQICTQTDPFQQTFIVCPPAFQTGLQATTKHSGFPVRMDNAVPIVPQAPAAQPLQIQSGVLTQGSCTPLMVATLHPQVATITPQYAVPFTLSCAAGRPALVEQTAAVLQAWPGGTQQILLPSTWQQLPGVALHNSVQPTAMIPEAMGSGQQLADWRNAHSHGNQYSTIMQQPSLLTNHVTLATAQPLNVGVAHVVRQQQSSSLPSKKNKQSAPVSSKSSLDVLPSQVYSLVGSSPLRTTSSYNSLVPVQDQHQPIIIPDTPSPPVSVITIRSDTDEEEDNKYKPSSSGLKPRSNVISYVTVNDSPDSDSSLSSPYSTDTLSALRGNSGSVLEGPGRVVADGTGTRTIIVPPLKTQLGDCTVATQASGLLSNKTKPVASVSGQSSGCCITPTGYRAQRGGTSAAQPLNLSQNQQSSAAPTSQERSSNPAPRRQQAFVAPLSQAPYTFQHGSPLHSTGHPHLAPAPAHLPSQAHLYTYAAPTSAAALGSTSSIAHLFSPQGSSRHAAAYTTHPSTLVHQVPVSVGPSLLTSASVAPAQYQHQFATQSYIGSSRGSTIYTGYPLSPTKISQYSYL
Chain of LOK (O94804 whole entry): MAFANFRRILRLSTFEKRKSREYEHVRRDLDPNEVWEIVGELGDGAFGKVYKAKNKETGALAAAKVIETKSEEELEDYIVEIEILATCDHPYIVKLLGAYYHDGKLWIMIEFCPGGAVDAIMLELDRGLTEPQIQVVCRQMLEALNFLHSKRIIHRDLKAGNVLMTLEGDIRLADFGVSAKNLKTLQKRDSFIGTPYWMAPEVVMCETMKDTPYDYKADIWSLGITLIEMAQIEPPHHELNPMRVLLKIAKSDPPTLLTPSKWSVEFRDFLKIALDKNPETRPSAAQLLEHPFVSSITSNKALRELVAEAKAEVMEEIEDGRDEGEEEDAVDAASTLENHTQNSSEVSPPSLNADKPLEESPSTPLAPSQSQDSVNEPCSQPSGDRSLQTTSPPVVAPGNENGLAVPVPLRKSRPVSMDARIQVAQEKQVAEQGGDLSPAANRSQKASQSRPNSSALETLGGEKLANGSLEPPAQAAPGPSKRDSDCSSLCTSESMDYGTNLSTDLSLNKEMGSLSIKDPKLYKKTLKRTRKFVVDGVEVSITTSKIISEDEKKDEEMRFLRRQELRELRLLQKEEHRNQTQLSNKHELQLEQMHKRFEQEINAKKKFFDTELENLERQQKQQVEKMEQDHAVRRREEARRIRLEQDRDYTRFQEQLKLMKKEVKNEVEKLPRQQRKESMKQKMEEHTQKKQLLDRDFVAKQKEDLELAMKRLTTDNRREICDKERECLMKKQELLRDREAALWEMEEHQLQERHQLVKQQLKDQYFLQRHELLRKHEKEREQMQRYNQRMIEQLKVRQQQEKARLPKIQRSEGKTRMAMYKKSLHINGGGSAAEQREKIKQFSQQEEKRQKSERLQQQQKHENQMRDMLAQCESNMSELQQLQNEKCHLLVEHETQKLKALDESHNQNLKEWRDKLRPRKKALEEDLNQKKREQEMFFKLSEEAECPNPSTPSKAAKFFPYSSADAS
Chain of CDK7 (P50613 whole entry): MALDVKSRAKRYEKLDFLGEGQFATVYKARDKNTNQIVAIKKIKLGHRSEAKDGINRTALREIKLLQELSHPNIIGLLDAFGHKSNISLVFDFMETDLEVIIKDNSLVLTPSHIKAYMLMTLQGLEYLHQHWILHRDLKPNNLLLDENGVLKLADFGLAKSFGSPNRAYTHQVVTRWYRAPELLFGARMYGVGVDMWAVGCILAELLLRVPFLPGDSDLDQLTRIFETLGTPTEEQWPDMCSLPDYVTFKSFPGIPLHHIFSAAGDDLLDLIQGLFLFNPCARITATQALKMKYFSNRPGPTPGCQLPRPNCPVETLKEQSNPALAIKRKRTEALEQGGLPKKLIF

CCN1CCN(Cc2ccc(NC(=O)c3cccc(-c4ccc5nc(NC(=O)C6CC6)sc5n4)c3)cc2C(F)(F)F)CC1 [Compound 2]
Kd (HIPK1): 34 nM
Kd (BRAF): 36 nM
Kd (CDK2): 840 nM
Kd (FLT4): 31 nM
Kd (FLT3): 2.3 nM
Kd (FLT1): 74 nM
Kd (CDK7): 13 nM
Kd (LOK): 9.5 nM
IC50 (Ba/F3-TEL/PDGFRβ): < 100 nM
IC50 (Ba/F3-PDGFRα-D842V): 1000 nM
IC50 (Ba/F3-PDGFRα-V561D): > 1000 nM
IC50 (Ba/F3-PDGFRβ-T681I): > 1000 nM
Apoptotic (Ba/F3-PDGFRα-T674M; 0.01 μM): 9
Necrotic (Ba/F3-PDGFRα-T674M; 0.01 μM): 0
Viable (Ba/F3-PDGFRα-T674M; 0.01 μM): 91
Apoptotic (Ba/F3-PDGFRα-T674M; 0.1 μM): 65.2
Necrotic (Ba/F3-PDGFRα-T674M; 0.1 μM): 0
Viable (Ba/F3-PDGFRα-T674M; 0.1 μM): 34.7
Apoptotic (Ba/F3-PDGFRα-T674M; 1.0 μM): 86.80
Necrotic (Ba/F3-PDGFRα-T674M; 1.0 μM): 0.1
Viable (Ba/F3-PDGFRα-T674M; 1.0 μM): 13.2
Apoptotic (Ba/F3-kit-T6701; 0.01 μM): 2.3
Necrotic (Ba/F3-kit-T6701; 0.01 μM): 0
Viable (Ba/F3-kit-T6701; 0.01 μM): 97.7
Apoptotic (Ba/F3-kit-T6701; 0.1 μM): 3.1
Necrotic (Ba/F3-kit-T6701; 0.1 μM): 0
Viable (Ba/F3-kit-T6701; 0.1 μM): 96.9
Apoptotic (Ba/F3-kit-T6701; 1.0 μM): 8.4
Necrotic (Ba/F3-kit-T6701; 1.0 μM): 0
Viable (Ba/F3-kit-T6701; 1.0 μM): 91.6
Apoptotic (Ba/F3-PDGFRα-T674I; 0.01 μM): 38.1
Necrotic (Ba/F3-PDGFRα-T674I; 0.01 μM): 0.1
Viable (Ba/F3-PDGFRα-T674I; 0.01 μM): 61.9
Apoptotic (Ba/F3-PDGFRα-T674I; 0.1 μM): 84.7
Necrotic (Ba/F3-PDGFRα-T674I; 0.1 μM): 0.2
Viable (Ba/F3-PDGFRα-T674I; 0.1 μM): 15.2
Apoptotic (Ba/F3-PDGFRα-T674I; 1.0 μM): 94.1
Necrotic (Ba/F3-PDGFRα-T674I; 1.0 μM): 0
Viable (Ba/F3-PDGFRα-T674I; 1.0 μM): 5.8

— patent US8765747B2, “Fused 2-aminothiazole compounds” (Dana-Farber Cancer Institute, Inc., priority 2009, dated 2014)
